Test results: the NIST ThermoML archive (doi:10.1021/acs.jced.7b00945)
± gives the expanded uncertainty stated by the source.

Columns and labels:
[1] = refractive index (Na D-line) (dimensionless); wn = mass fraction of the nth substance listed; conditions: 303 K, 100 kPa, Liquid, Standard Abbe refractometry
[2] = refractive index (Na D-line) (dimensionless); conditions: 303 K; 100 kPa; Liquid; Standard Abbe refractometry

| refractive index ([1]; w2 = 0.3) | refractive index ([1]; w2 = 0.41) | refractive index ([1]; w2 = 0.5) | refractive index ([1]; w2 = 0.6) | refractive index ([1]; w2 = 0.7) | refractive index ([1]; w2 = 0.8) | Compound | refractive index ([1]; w1 = 1) | other results |
| --- | --- | --- | --- | --- | --- | --- | --- | --- |
| 1.4008 ± 0.00038 | 1.38994 ± 0.00038 | 1.38106 ± 0.00038 | 1.37126 ± 0.00038 | 1.36074 ± 0.00038 | 1.35122 ± 0.00038 | OCCO [1,2-ethanediol] + O |  | refractive index ([1]; w2 = 0.1): 1.4196 ± 0.00038; refractive index ([1]; w2 = 0.2): 1.41005 ± 0.00038; refractive index ([1]; w2 = 0.89): 1.34168 ± 0.00037 |
| 1.41992 ± 0.00042 | 1.40643 ± 0.00043 | 1.39413 ± 0.00042 | 1.38175 ± 0.00042 | 1.36838 ± 0.00041 | 1.35616 ± 0.0004 | OCCOCCOCCO [triethylene glycol] + O |  | refractive index ([1]; w2 = 0.1): 1.44204 ± 0.00042; refractive index ([1]; w2 = 0.21): 1.43047 ± 0.00042; refractive index ([1]; w2 = 0.9): 1.34378 ± 0.0004 |
|  |  |  |  |  |  | O [water] |  | refractive index [2]: 1.33179 ± 0.00032 |
|  |  |  |  |  |  | O [water] + OCCO | 1.33179 ± 0.00032 |  |
|  |  |  |  |  |  | O [water] + OCCOCCO | 1.33179 ± 0.00032 |  |
|  |  |  |  |  |  | O [water] + OCCOCCOCCO | 1.33179 ± 0.00032 |  |
|  |  |  |  |  |  | O [water] + OCCOCCOCCOCCO | 1.33179 ± 0.00032 |  |

| Compound | refractive index ([1]; w2 = 0.3) | refractive index ([1]; w2 = 0.41) | refractive index ([1]; w2 = 0.5) | refractive index ([1]; w2 = 0.6) | refractive index ([1]; w2 = 0.7) | refractive index ([1]; w2 = 0.8) | refractive index ([1]; w1 = 1) | other results |
| --- | --- | --- | --- | --- | --- | --- | --- | --- |
| OCCOCCO [diethylene glycol] + O | 1.41341 ± 0.00041 | 1.40107 ± 0.00042 | 1.38922 ± 0.00041 | 1.37817 ± 0.0004 | 1.36617 ± 0.0004 | 1.35413 ± 0.0004 |  | refractive index ([1]; w2 = 0.11): 1.43408 ± 0.00043; refractive index ([1]; w2 = 0.2): 1.42406 ± 0.00042; refractive index ([1]; w2 = 0.9): 1.34259 ± 0.00039 |
